The values that follow come from US8673940B2, “Compounds for the treatment of diseases associated with amyloid or amyloid-like proteins” (AC Immune SA, priority 2006, dated 2014).

Where a name gives a salt, the structure may show the parent alone. A value given as a limit tells only on which side of the number the result lay.

Tested on in the first series: not given
Experiment: not given
Settings: not given
Take `CNc1ncc(CNc2ncc(Cc3ccccc3)s2)s1` (as salt: hydrochloride) [Compound 2ah, 5-Benzyl-N-((2-(methylamino)thiazol-5-yl)methyl)thiazol-2-amine dihydrochloride]: the melting point (as a rule, the temperature of the solid-liquid transition) was in the range of 76 to 77 °C.

Regarding `Fc1ccc(-c2cc(NCc3cnc(NCc4ccccc4)s3)n[nH]2)cc1` (as salt: hydrochloride) [Compound 2k, N-Benzyl-5-((5-(4-fluorophenyl)-1H-pyrazol-3-ylamino)methyl)thiazol-2-amine dihydrochloride], the melting point was in the range of 78 to 80 °C.

Regarding `c1ccc(CNc2ncc(CNc3ncc(Cc4ccccc4)s3)s2)cc1` (as salt: hydrochloride) [Compound 2ag, 5-Benzyl-N-((2-(benzylamino)thiazol-5-yl)methyl)thiazol-2-amine dihydrochloride], the melting point was 96 to 97 °C.

In the case of `CNc1ncc(CNc2nc(Cc3ccccc3)cs2)s1` (as salt: hydrochloride) [Compound 2af, 4-Benzyl-N-((2-(methylamino)thiazol-5-yl)methyl)thiazol-2-amine dihydrochloride], the melting point was 126 to 127 °C.

With `Nc1cccc(NCc2ccc(NCc3ccccc3)nc2)n1` (as salt: hydrochloride) [Compound 2y, N^2-((6-(benzylamino)pyridin-3-yl)methyl)pyridine-2,6-diamine], the melting point was in the range of 261 to 262 °C.

`Cc1ccc(-c2csc(NCc3cnc(Nc4ccccn4)s3)n2)cc1` (as salt: hydrochloride) [Compound 2z, N-(Pyridin-2-yl)-5-((4-p-tolylthiazol-2-ylamino)methyl)thiazol-2-amine trihydrochloride] came in with a melting point of 169 to 170 °C.

In the case of `c1ccc(CNc2ncc(CNc3nc(-c4cccs4)cs3)s2)cc1` (as salt: hydrochloride) [Compound 2al, N-Benzyl-5-((4-(thiophen-2-yl)thiazol-2-ylamino)methyl)thiazol-2-amine dihydrochloride], the melting point fell in the range of 97 to 99 °C.

In turn, `CNc1ncc(CNc2nc(-c3ccc(Cl)cc3)cs2)s1` (as salt: hydrochloride) [Compound 2aa, 4-(4-Chlorophenyl)-N-((2-(methylamino)thiazol-5-yl)methyl)thiazol-2-amine dihydrochloride] yielded a melting point of 122 to 123 °C.

As to `c1ccc(CNc2ncc(CNc3nc(Cc4ccccc4)cs3)s2)cc1` (as salt: hydrochloride) [Compound 2ae, 4-Benzyl-N-((2-(benzylamino)thiazol-5-yl)methyl)thiazol-2-amine dihydrochloride], the melting point is 78 to 79 °C.

Consider `CCCNc1ncc(CNc2ncc(CNc3nc(-c4ccc(C)cc4)cs3)s2)s1` (as salt: hydrochloride) [Compound 2ad, N-Propyl-5-((5-((4-p-tolylthiazol-2-ylamino)methyl)thiazol-2-ylamino)methyl)thiazol-2-amine trihydrochloride], for which the melting point is > 135 °C (dec.).

Regarding `CCCCNc1cccc(CNc2cc(-c3ccc(F)cc3)[nH]n2)n1` [Compound 2am, N-Butyl-6-((5-(4-fluorophenyl)-1H-pyrazol-3-ylamino)methyl)pyridin-2-amine], the melting point fell in the range of 93 to 94 °C.

In turn, `Cc1ccc(-c2csc(NCc3cnc(NCc4ccccc4)s3)n2)cc1` (as salt: hydrochloride) [Compound 2j, N-Benzyl-5-((4-p-tolylthiazol-2-ylamino)methyl)thiazol-2-amine dihydrochloride] yielded a melting point of 106 to 108 °C.

The target in the next series is T1, amyloid beta (Aβ) 1-42 peptide (Homo sapiens, UniProt P05067).
T1 construct: amyloid beta (Aβ) 1-42 peptide; purchased Bachem
T1 sequence (P05067 672-713 limits assumed): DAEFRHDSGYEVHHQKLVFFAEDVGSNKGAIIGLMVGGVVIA
In words: Thioflavin T spectrofluorescence assay, inhibition of Aβ1-42 aggregation. The format is biochemical. To be noted: 330 μM small molecule, 33 μM Aβ1-42 (10:1 molar ratio), 24 hrs at 37° C.; mean ± SD of two independent experiments; read-out: % inhibition. How it is done:
A number of the small molecules were tested for their capacity to inhibit the aggregation of amyloid beta (Aβ) 1-42 peptide using a thioflavin T spectrofluorescence assay.
Aβ1-42 lyophilized powder (Bachem) was reconstituted in hexafluoroisopropanol (HFIP) to 1 mM. The peptide solution was sonicated for 15 min at room temperature, agitated overnight, and aliquots were placed into non-siliconized microcentrifuge tubes. The HFIP was then evaporated under a stream of argon. The resulting peptide film was dried under vacuum for 10 min, tightly sealed and stored at −80° C. until used.
To assay for the small molecule-mediated inhibition of Aβ1-42 aggregation, the small molecules were dissolved before each experiment in anhydrous dimethyl sulfoxide (DMSO, Sigma-Aldrich) to reach a concentration of 7.4 mM. Aβ1-42 peptide film was dissolved in DMSO to reach 400 μM. Assay solution in PBS buffer was prepared in non-siliconized incubation tubes to reach the following concentrations: 330 μM small molecule, 33 μM Aβ1-42, 10 μM thioflavin T (ThT), and 12.8% DMSO. Therefore, the final molar ratio of small molecule to Aβ1-42 was 10:1. A positive control without a small molecule was prepared to measure maximum RFU. A negative control without Aβ1-42 was prepared for each small molecule. 3-Aminopyrazole trimer (Trimer) was tested in all assays to ascertain reproducibility between independent experiments. The solutions were incubated for 24 hrs at 37° C., and the spectrofluorescence (relative fluorescence units; RFU) was read in six replicates in black 384-well assay plates (Perkin-Elmer) on a Perkin-Elmer FluoroCount spectrofluorometer. Inhibition of aggregation is expressed as mean % inhibition or ±1 standard deviation (SD) according to the following equation: […]
Cut-off criterium for the selection of functional molecules was defined at 50% inhibition capacity.
The small molecules were evaluated for their capacity to mediate inhibition of Aβ1-42 aggregation at a 10:1 small molecule to Aβ1-42 molar ratio. The results are expressed as mean±standard deviation of two independent experiments.
As for `Fc1ccc(-c2cc(CNc3cccc(NCc4ccccc4)n3)n[nH]2)cc1` [Compound 2s, N^2-benzyl-N^6-((5-(4-fluorophenyl)-1H-pyrazol-3-yl)methyl)pyridine-2,6-diamine], the inhibition (commonly how much of the control response was suppressed) at 330 µM came to 55.1 ± 6.4%.

Regarding `c1ccc(CNc2cccc(CNc3cc(-c4cccs4)[nH]n3)n2)cc1` [Compound 2ac, N-benzyl-6-((5-(thiophen-2-yl)-1H-pyrazol-3-ylamino)methyl)pyridin-2-amine], the inhibition at 330 µM was 78.5 ± 1.3%.

As for `Fc1ccc(NCc2ccc(NCc3ccccc3)nc2)nc1` [Compound 2q, N-Benzyl-5-((5-fluoropyridin-2-ylamino)methyl)pyridin-2-amine], the inhibition at 330 µM worked out at 45 ± 8.3%.

With `Nc1cccc(NCc2ccc(NCc3ccccc3)nc2)n1` [Compound 2y, N^2-((6-(benzylamino)pyridin-3-yl)methyl)pyridine-2,6-diamine], the inhibition at 330 µM was found to be 57 ± 15.9%.

The same series, now with this note: 24 h.
On to `Cc1ccc(-c2cnc(NCc3cnc(NCc4ccccc4)s3)s2)cc1` [Compound 2h, N-Benzyl-5-((5-p-tolylthiazol-2-ylamino)methyl)thiazol-2-amine dihydrochloride], for which the inhibition at 330 µM stood at 31.9 ± 10.1%.

The molecule `Cc1ccc(-c2csc(NCc3cnc(Nc4ccccn4)s3)n2)cc1` [Compound 2z, N-(Pyridin-2-yl)-5-((4-p-tolylthiazol-2-ylamino)methyl)thiazol-2-amine trihydrochloride] gave an inhibition at 330 µM of 58.7 ± 3%.

In the case of `CNc1ncc(CNc2ncc(Cc3ccccc3)s2)s1` [Compound 2ah, 5-Benzyl-N-((2-(methylamino)thiazol-5-yl)methyl)thiazol-2-amine dihydrochloride], the inhibition at 330 µM worked out at 35.7 ± 5.6%.

Turning to `CNc1ncc(CNc2nc(-c3ccc(Cl)cc3)cs2)s1` [Compound 2aa, 4-(4-Chlorophenyl)-N-((2-(methylamino)thiazol-5-yl)methyl)thiazol-2-amine dihydrochloride], the inhibition at 330 µM was 41.5 ± 9.6%.

Consider `c1ccc(CNc2ncc(CNc3nc(-c4cccs4)cs3)s2)cc1` [Compound 2al, N-Benzyl-5-((4-(thiophen-2-yl)thiazol-2-ylamino)methyl)thiazol-2-amine dihydrochloride], for which 330 µM produced 66.1 ± 15.4% inhibition.

Consider `CNc1ncc(CNc2ncc(-c3ccc(C)cc3)s2)s1` [Compound 2o, N-Methyl-5-((5-p-tolylthiazol-2-ylamino)methyl)thiazol-2-amine dihydrochloride], for which at 330 µM the inhibition was 39.6 ± 2.8%.

Consider `Cc1ccc(-c2csc(NCc3cnc(NCc4ccccc4)s3)n2)cc1` [Compound 2j, N-Benzyl-5-((4-p-tolylthiazol-2-ylamino)methyl)thiazol-2-amine dihydrochloride], for which testing at 330 µM gave an inhibition of 70.7 ± 6.8%.

In the case of `Fc1ccc(-c2cc(NCc3cnc(NCc4ccccc4)s3)n[nH]2)cc1` [Compound 2k, N-Benzyl-5-((5-(4-fluorophenyl)-1H-pyrazol-3-ylamino)methyl)thiazol-2-amine dihydrochloride], at 330 µM the inhibition was 81.2 ± 7.3%.

On to `CNc1ncc(CNc2nc(-c3ccc(C)cc3)cs2)s1` [Compound 2n, N-Methyl-5-((4-p-tolylthiazol-2-ylamino)methyl)thiazol-2-amine dihydrochloride], for which 330 µM produced 27.8 ± 9.9% inhibition.

In the case of `c1ccc(Nc2ncc(CNc3nccs3)s2)nc1` [Compound 2p, N-(Pyridin-2-yl)-5-((thiazol-2-ylamino)methyl)thiazol-2-amine trihydrochloride], at 330 µM the inhibition was 43.6 ± 2.1%.

Regarding `c1ccc(CNc2ncc(CNc3ncc(Cc4ccccc4)s3)s2)cc1` [Compound 2ag, 5-Benzyl-N-((2-(benzylamino)thiazol-5-yl)methyl)thiazol-2-amine dihydrochloride], 330 µM produced 34.2 ± 1.6% inhibition.

On to `CNc1ncc(CNc2nc(Cc3ccccc3)cs2)s1` [Compound 2af, 4-Benzyl-N-((2-(methylamino)thiazol-5-yl)methyl)thiazol-2-amine dihydrochloride], for which the inhibition at 330 µM amounted to 41.3 ± 9.2%.

Regarding `c1ccc(CNc2ncc(CNc3nc(Cc4ccccc4)cs3)s2)cc1` [Compound 2ae, 4-Benzyl-N-((2-(benzylamino)thiazol-5-yl)methyl)thiazol-2-amine dihydrochloride], testing at 330 µM gave an inhibition of 51.2 ± 1.5%.

Molecule `Cc1ccc(-c2cc(CNc3cc(CNc4cc(-c5ccc(C)cc5)[nH]n4)n[nH]3)n[nH]2)cc1` [Compound 2ai, 5-p-Tolyl-N-((5-((5-p-tolyl-1H-pyrazol-3-yl)methylamino)-1H-pyrazol-3-yl)methyl)-1H-pyrazol-3-amine trihydrochloride] showed an inhibition at 330 µM of 84.8%.

For `CNc1ncc(CNc2nccs2)s1` [Compound 2w, N-Methyl-5-((thiazol-2-ylamino)methyl)thiazole-2-amine dihydrochloride], the inhibition at 330 µM stood at 13.9 ± 12.9%.

Molecule `CCCNc1ncc(CNc2ncc(CNc3nc(-c4ccc(C)cc4)cs3)s2)s1` [Compound 2ad, N-Propyl-5-((5-((4-p-tolylthiazol-2-ylamino)methyl)thiazol-2-ylamino)methyl)thiazol-2-amine trihydrochloride] returned an inhibition at 330 µM of 82.1 ± 2.2%.

For `Cc1ccc(-c2cc(CNc3cc(-c4ccc(C)cc4)[nH]n3)n[nH]2)cc1` [Compound 2a, 5-p-Tolyl-N-((5-p-tolyl-1H-pyrazol-3-yl)methyl)-1H-pyrazol-3-amine dihydrochloride], the inhibition at 330 µM worked out at 65.3 ± 2.6%.
